# In PMC9416163, “Antiproliferative Copper(II) Complexes Bearing Mixed Chelating Ligands: Structural Characterization, ROS Scavenging, In Silico Studies, and Anti-Melanoma Activity” (Pharmaceutics, 2022):
# Experiments:
# [1] = test system: Human fibroblast cells (BJ); assay: MTT cell viability assay on BJ cells; assay type: cell-based; conditions: for IC50: MTT
# Description: (§1) Human fibroblast cells (BJ-ATCC CRL-2522, USA) were grown in minimal essential medium (MEM) supplemented with 2 mM L-Glutamine, 10% fetal calf serum (FCS), 100 units/mL of penicillin, and 100 µg/mL of streptomycin at 37 °C in a humidified incubator under an atmosphere containing 5% CO2. Mouse melanoma cells (B16-ATCC CRL-6475, USA) were grown in DMEM (Dulbecco’s Modified Eagle Medium) supplemented with reagents like MEM. All cell cultivation media and reagents were purchased from Biochrom AG (Berlin, Germany) and Sigma-Aldrich (Darmstadt, Germany).
# (§2) Cell viability was evaluated using the MTT assay (3-(4,5-dimethylthiazol-2-yl)-2,5-diphenyltetrazolium bromide) as previously described. Briefly, BJ and B16 cells were seeded in 96-well plates at densities of 10,000 cells/well and 7000 cells/well and further cultured in the medium for 24 h. The next day, the investigated compounds were added at a concentration of 1 to 25 μM for 24 and 48 h. The cells cultivated in medium without the studied samples served as negative controls. After incubation for the desired times, the medium was replaced with MTT solution (1 mg/mL) and incubated for an additional 4 h at 37 °C. Finally, the medium was collected, and DMSO was used to dissolve the insoluble formazan product. A Mithras 940 (Berthold, Bad Wildbad, Germany) plate reader was used to measure the absorbance of the samples at 570 nm. The data were corrected for background, and the percentage of viable cells was obtained using the following equation:Cell viability = [(A570 of treated cells)/(A570 of untreated cells)] × 100 (%)
# (§3) Half-maximal inhibitory concentration (IC50) was determined by fitting the data with a sigmoidal logistic function using Origin 8.1 (Microcal Inc., Northampton, MA, USA) software.
# [2] = test system: B16 murine melanoma cells; assay: MTT cell viability assay on B16 cells; assay type: cell-based, mouse; conditions: for IC50: MTT
# Description: as §1, §2, §3
# B16 cells = assay: Cell cycle analysis (PI, flow cytometry); assay type: cell-based, mouse; conditions: 24 h; for cells in the G2/M phase: untreated 15.53%; for cells in the S phase: untreated 25.65%; for cells in the G0/G1 phase: untreated 49.70%; for changes in the cell cycle: 1 μM or 5 μM
# Description: Twenty-four hours after treatment of B16 cells with concentrations of 1 and 5 μM of each compound, cells were harvested and fixed with pre-chilled 70% ethanol solution at −20 °C. Cells were incubated with 0.2 mg/mL RNAse and 20 μg/mL propidium iodide (PI) in a 0.1% Triton TX-100 solution, in the dark, for 30 min at 37 °C. Cell cycle distribution was analyzed using a Beckman Coulter Cell Lab Quanta SC Flow Cytometer (Indianapolis, IN, USA), and the data were analyzed using the Quanta Analysis software.
# [3] = EPR, interaction with superoxide (KO2); conditions: 100 µM in DMSO, KO2 added
# Description: The C, N, and H chemical analyses were carried out with a EuroEA elemental analyzer. Fourier Transform Infrared spectroscopy (FTIR) spectra were recorded with a Tensor 37 spectrometer (Bruker, Billerica, MA, USA) in the 400–4000 cm^−1 range. A Jasco V 670 spectrophotometer (Jasco, Easton, MD, USA) with Spectralon as a standard in the 200–1500 nm range was used to record the UV-Vis spectra in solid-state. A continuous wave X-Band Bruker EMX plus EPR spectrometer (Bruker, Karlsruhe, Germany) equipped with a Bruker X-SHQ 4119HS-W1 X-Band resonator was used for the X-band EPR measurements. The parameters for the X-Band measurements were set as follows: microwave frequency 9.879 GHz, microwave power 6.325 mW, modulation amplitude 0.2 mT, conversion time 74.17 ms, and time constant 40.96 ms at 35 scans. All measurements were carried out at room temperature. Simultaneous Thermogravimetric/Differential Scanning Calorimetry–Mass spectroscopy (TG-DSC/MS) measurements were performed on a TGA/DSC1 Thermal Analyser (Mettler Toledo, Schwarzenbach, Switzerland), coupled to a Vacuum Thermostar Mass Spectrometer (Pfeiffer, Asslar, Germany) under the following conditions: isothermal conditioning at 25 °C, temperature range from 25 to 800 °C, heating rate 5 °C/min, dynamic air atmosphere with a flow rate of 100 mL/min, sample masses of 2–4 mg, 150 μL platinum crucible; empty crucible served as reference. The blank curve was subtracted. Evolved gasses were introduced into the Mass Spectrometer via a 75 cm heated capillary.
# In contrast, all compounds in the presence of HO⋅ radicals show the trapping ability of these radicals, as indicated by the additional EPR signals in all four EPR spectra.
# MKN-45 cells = test system: MKN-45 cells; set-up: method as in doi:10.1080/00958972.2018.1447668; conditions: 48 h of incubation; cited from earlier work
Compound,cell viability ([1]; 10 μM) [%],IC50 ([1]; 24 h) [µM],IC50 ([1]; 48 h) [µM],cell viability ([1]; up to 25 μM),cell viability ([2]; 10 μM) [%],IC50 ([2]; 24 h) [µM],IC50 ([2]; 48 h) [µM],cell viability ([2]; up to 25 μM),"cells in the sub-G1 phase (B16 cells; 5 μM, untreated 9.11%) [%]",cells in the G2/M phase (B16 cells; 5 μM) [%],cells in the S phase (B16 cells; 5 μM) [%],cells in the G0/G1 phase (B16 cells; 5 μM) [%],response to O2⋅^− radicals (EPR) [3],cytotoxicity compared with 5-fluorouracil (MKN-45 cells),changes in the cell cycle (B16 cells)
"CC(=O)C=C([O-])c1ccccc1.[Cu+2].[O-][Cl+3]([O-])([O-])[O-].c1cnc2c(c1)ccc1cccnc12 [Compound (1), [Cu(phen)(bzac)(ClO4)]]",20,3.95,2.8,about 15%,10,3.48,2.2,about 5%,18.43,5.59,15.82,60.14,exhibit a scavenging response,significantly more cytotoxic against MKN-45 cells than 5-fluorouracil,
"CC(=O)C=C([O-])c1ccccc1.O.O=[N+]([O-])[O-].[Cu+2].c1cnc2c(c1)ccc1cccnc12 [Compound (2), [Cu(phen)(bzac)(NO3)]⋅H2O]",20,4.85,2.48,about 15%,10,2.65,1.44,about 5%,,10.78,13.81,54.90,exhibit a scavenging response,,
"CC(=O)C=C([O-])c1ccccc1.[Cu+2].[O-][Cl+3]([O-])([O-])[O-].c1ccc(-c2ccccn2)nc1 [Compound (3), [Cu(bpy)(bzac)]ClO4]",,11,10.4,,,8.28,4.65,,,,,,exhibit a scavenging response,significantly more cytotoxic against MKN-45 cells than 5-fluorouracil,no changes in the cell cycle were observed
"CC(=O)C=C([O-])c1ccccc1.O=[N+]([O-])[O-].[Cu+2].c1ccc(-c2ccccn2)nc1 [Compound (4), [Cu(bpy)(bzac)(NO3)]]",,11.7,10.3,,,6.43,4.7,,,,,,neither scavenging nor a trapping ability toward superoxide radicals,,no changes in the cell cycle were observed
